From patent publication US8242166B2, “C(10) ethyl ester and C(10) cyclopropyl ester substituted taxanes” (Florida State University Research Foundation, Inc., priority 2008, dated 2012)
Where two headings read alike, the source gives them in different places.

What was measured:
HCT116 = assay: MTT cytotoxicity (IC50), HCT116; type: cell-based; settings: Homo sapiens, HCT-116, 72 h, read-out: IN Vitro IC50 (nm) HCT116
Procedure: (§1) All cell lines were maintained in RPMI-1640 tissue culture medium (TCM, supplemented with antibiotics and 10% fetal bovine serum) and cultured at 37° C. in humidified air containing 5% CO2. To assess the antiproliferative effects of the test compounds, 172 μL of tumor cell suspension (1.45×10^4 cells/ml) were added to each well of a 96-well plate and incubated for 24 h at 37° C. in 5% CO2 in air to allow cells to adhere. Seven 2-fold drug dilutions in TCM/DMSO were performed in triplicate in separate 96-well plates and 28 μL was transferred to the wells containing tumor cells (200 μL final volume/0.1% DMSO). Plates were incubated for 72 h and cell viability was determined by adding 50 μL of warm TCM containing 5 mg/mL MTT (3-[4,5-dimethylthiazol-2-yl]-2,5-diphenyltetrazolium bromide) to each well and incubating for 1 h at 37° C. Plates were processed and the absorbances of the resulting solutions were measured by a plate reader at 570 nm. […] (GraphPad Prism version 4.00 for Windows). Studies were conducted by Taxolog, Inc., Tallahassee, Fla.

DLD-1 = assay: MTT cytotoxicity (IC50), DLD-1; type: cell-based; settings: Homo sapiens
Procedure: as §1, with “Compound 17932 was tested in four of these cell lines, while the remaining compounds were tested in all of these cell lines. All” for “All”

TK-10 = assay: MTT cytotoxicity (IC50), TK-10; type: cell-based; settings: Homo sapiens, 72 h, read-out: IN Vitro IC50 (nm) TK10
Procedure: as §1, with “Compound 17932 was tested in four of these cell lines, while the remaining compounds were tested in all of these cell lines. All” for “All”

[1] = test system: HT29 human tumor xenografts; assay: HT29 xenograft study e139 (Example 23); type: in vivo, nude mice
[2] = test system: HT29 human tumor xenografts; assay: HT29 xenograft study e210, oral and i.v. (Example 25); settings: for CR (complete regression) / NTR NTRa/u / NTR NTRm / PR (partial regression) / TFS (tumor-free survivor) / TR (treatment-related death): n=6
From the text: (§2) The formulation for oral studies was an ethanol and Cremophor formulation while the formulation for compound 18365 and compound 19244 dosed i.v. was 5% ethanol and 95% Liposyn II 20%.

[3] = test system: HT29 human tumor xenografts; assay: HT29 xenograft study e212, oral and i.v. (Example 26); settings: every four day schedule for four doses
From the text: as §2

[4] = test system: human A375 melanoma xenograft; assay: A375 xenograft study e209 (Example 27); settings: 30 mg/kg iv q4d × 4
Procedure: The endpoint was a tumor volume of 2,000 mm^3 and the study was terminated on Day 56. Efficacy was assessed by tumor growth delay and the number of partial and complete regressions. Animals with a CR that persisted through Day 56 were classified as long-term tumor-free survivors (TFS).

[5] = test system: human MX-1 breast carcinoma; assay: MX1 xenograft study e219R1, i.v. single dose (Example 17); settings: for CR (complete regression) / NTR (non-treatment-related death) / PR (partial regression) / TFS (tumor-free survivor) / TR (treatment-related death): n=5

CC(=O)O[C@@]12CO[C@@H]1C[C@H](O)[C@@]1(C)C(=O)[C@H](OC(=O)C3CC3)C3=C(C)[C@@H](OC(=O)[C@H](O)[C@@H](NC(=O)OC4CCC4)c4cccs4)C[C@@](O)([C@@H](OC(=O)c4ccccc4)C12)C3(C)C (stereo partly shown) [Compound 18365]
IC50 (HCT116): 0.4 nM
IC50 (DLD-1; MTT, 72 h, read-out: IN Vitro IC50 (nm) DLD1): 1.1 nM
IC50 (DLD-1; Resistance MDR1+, read-out: DLD1 Colon (Table 4, quantity not named; IC50 values as Table 2)): 1.1 nM
IC50 (TK-10): 0.5 nM
61-day survivors ([1]; 25 mg/kg i.v. q4d×4, six mice): five
CR responses ([1]; 25 mg/kg i.v. q4d×4, six mice): 2
PR responses ([1]; 25 mg/kg i.v. q4d×4, six mice): 4
Day 51 mm^3 (tumor size) ([1]; 25 mg/kg iv q4d × 4): 112.8 mm^3
Day 54 mm^3 (tumor size) ([1]; 25 mg/kg iv q4d × 4): 124.7 mm^3
Max. BW Loss %; Day ([1]; 25 mg/kg iv q4d × 4): −17.1%; Day 16
Number of Death NTR ([1]; 25 mg/kg iv q4d × 4, N=6): 0
Number of Death TR ([1]; 25 mg/kg iv q4d × 4, N=6): 1
% TGD ([2]; 25 mg/kg iv q4d × 4): 214.3%
BW Nadir ([2]; 25 mg/kg iv q4d × 4): −7.6% (16)
MTV (n), Day 60 ([2]; 25 mg/kg iv q4d × 4): 5.00 (6) mm^3
Median TTE ([2]; 25 mg/kg iv q4d × 4): 60 days
T-C ([2]; 25 mg/kg iv q4d × 4): 40.91 days
CR (complete regression) ([2]; 25 mg/kg iv q4d × 4): 4
NTR NTRa/u ([2]; 25 mg/kg iv q4d × 4): 0
NTR NTRm ([2]; 25 mg/kg iv q4d × 4): 0
PR (partial regression) ([2]; 25 mg/kg iv q4d × 4): 2
TFS (tumor-free survivor) ([2]; 25 mg/kg iv q4d × 4): 4
TR (treatment-related death) ([2]; 25 mg/kg iv q4d × 4): 0
% TGD ([2]; 50 mg/kg po q4d × 4): 214.3%
BW Nadir ([2]; 50 mg/kg po q4d × 4): −7.6% (16)
MTV (n), Day 60 ([2]; 50 mg/kg po q4d × 4): 8.75 (6) mm^3
Median TTE ([2]; 50 mg/kg po q4d × 4): 60 days
T-C ([2]; 50 mg/kg po q4d × 4): 40.91 days
CR (complete regression) ([2]; 50 mg/kg po q4d × 4): 4
NTR NTRa/u ([2]; 50 mg/kg po q4d × 4): 0
NTR NTRm ([2]; 50 mg/kg po q4d × 4): 0
PR (partial regression) ([2]; 50 mg/kg po q4d × 4): 2
TFS (tumor-free survivor) ([2]; 50 mg/kg po q4d × 4): 3
TR (treatment-related death) ([2]; 50 mg/kg po q4d × 4): 0
activity in the HT29 xenograft tumor model ([2]; every four day schedule for four doses): oral and IV activity
activity in the HT29 xenograft tumor model [3]: oral and IV activity
BW Nadir [4]: −9.8% (14)
MTV(n), Day 56 [4]: 0.00 (6) mm^3
CR (complete regression) ([4]; n=6): 5
NTR NTRa/u ([4]; n=6): 0
NTR NTRm ([4]; n=6): 0
PR (partial regression) ([4]; n=6): 0
TFS (tumor-free survivor) ([4]; n=6): 5
TR (treatment-related death) ([4]; n=6): 0
% TGD ([4]; vehicle EL): 210.08%
Median TTE ([4]; vehicle EL): 56 days
T-C ([4]; vehicle EL): 37.94 days
% TGD ([5]; 7.5 mg/kg iv qd × 1): 12.92%
BW Nadir ([5]; 7.5 mg/kg iv qd × 1): −3.8% (4)
Median TTE ([5]; 7.5 mg/kg iv qd × 1): 36.29 days
T-C ([5]; 7.5 mg/kg iv qd × 1): 4.15 days
activity (statistical significance) ([5]; 7.5 mg/kg iv qd × 1): non-significant activity
CR (complete regression) ([5]; 7.5 mg/kg iv qd × 1): 0
NTR (non-treatment-related death) ([5]; 7.5 mg/kg iv qd × 1): 0
PR (partial regression) ([5]; 7.5 mg/kg iv qd × 1): 0
TFS (tumor-free survivor) ([5]; 7.5 mg/kg iv qd × 1): 0
TR (treatment-related death) ([5]; 7.5 mg/kg iv qd × 1): 0
% TGD ([5]; 15 mg/kg iv qd × 1): 76.26%
BW Nadir ([5]; 15 mg/kg iv qd × 1): −6.8% (5)
MTV (n), Day 60 ([5]; 15 mg/kg iv qd × 1): 1098.50 (1) mm^3
Median TTE ([5]; 15 mg/kg iv qd × 1): 56.65 days
T-C ([5]; 15 mg/kg iv qd × 1): 24.51 days
maximum group mean BW loss ([5]; 15 mg/kg iv qd × 1): 6.8%
CR (complete regression) ([5]; 15 mg/kg iv qd × 1): 2
NTR (non-treatment-related death) ([5]; 15 mg/kg iv qd × 1): 0
PR (partial regression) ([5]; 15 mg/kg iv qd × 1): 1
TR (treatment-related death) ([5]; 15 mg/kg iv qd × 1): 0
% TGD ([5]; 30 mg/kg iv qd × 1): 89.79%
BW Nadir ([5]; 30 mg/kg iv qd × 1): −16.0% (5)
MTV (n), Day 60 ([5]; 30 mg/kg iv qd × 1): 0.00 (5) mm^3
Median TTE ([5]; 30 mg/kg iv qd × 1): 61 days
T-C ([5]; 30 mg/kg iv qd × 1): 28.86 days
maximum group mean BW loss ([5]; 30 mg/kg iv qd × 1): 16%
CR (complete regression) ([5]; 30 mg/kg iv qd × 1): 5
NTR (non-treatment-related death) ([5]; 30 mg/kg iv qd × 1): 0
PR (partial regression) ([5]; 30 mg/kg iv qd × 1): 0
TFS (tumor-free survivor) ([5]; 30 mg/kg iv qd × 1): 5
TR (treatment-related death) ([5]; 30 mg/kg iv qd × 1): 0
minimal effective dose ([5]; iv qd × 1, lowest dose with statistically significant results and at least one D61 survivor or regression): 15 mg/kg
